Reference: US20130324520A1, “RXRG MODULATORS FOR THE TREATMENT OF CANCER” (SLOAN-KETTERING INSTITUTE FOR CANCER RESEARCH, priority 2011, published 2013)
“Also recorded” adds a separate entry of the source. Read-outs that look alike come from different tables or passages of the source.

What was measured:
[1] = test system: WERI
Description: Colon, lung, pancreatic cancer, retinoblastoma and other cell lines were cultured in culture medium consisting of IMDM (Medium Lab, MSKCC, NY) with 10% FBS (SH3008803, HyClone, Thermo Scientific), 2 mM glutamine (Invitrogen), 55 μM beta-mercaptoethanol (Invitrogen), 1% Penicillin/streptomycin (Invitrogen), and 2.5 μg/ml Plasmocin (Invivogen), at 37° C. in a humidified incubator with 5% CO2. Melanoma cell lines were culture in RPMI with above additives.
Colon, lung, pancreatic, breast, prostate cancer cell lines and other cancer cell lines were cultured in 10 cm dishes or 24 well plates with complete IMDM or RPMI (for melanoma) with 30-50% confluence. […] DMSO was used for control. After 3-6 days treatment, cells were collected and counted with trypan blue. Dose-effectiveness curves were generated with series dilution of compounds in medium for treatment of cells.

[2] = test system: A549; assay: DAPI staining of treated cells; assay type: cell-based; details: 6 uM, day 1
Description: Colon cancer or lung cancer cells were passaged to dishes with coverslips, and incubated in a humidified incubator at 5% CO2 and 37° C. for 1-2 days. The medium was removed and the cells fixed in 4% PFA/PBS for 5 min, gently rinsed with 0.15 M NaCl/20 mM Tris (pH 8.0; TBS), dried, and stored at −20° C.
Co-staining analyses with other antibodies: On completing the first staining reaction as described above, cells were incubated in block 1 for 20 min, incubated overnight with primary antibody in block 1, washed in PBS, incubated for 30 min in block 1 with Cy3 or Cy5 conjugated secondary antibody, and washed in PBS. Sections were then stained with 4′,6′-diamino-2-phenylindole (DAPI) in PBS, mounted in [sequence] Mounting Media (Vector Labs), and analyzed by inverted immunofluorescent microscopy (Axioplan2 Imaging, Carl Zeiss MicroImaging, LLC).

| Structure (SMILES) | cell growth (cell number changes) [1] | cell growth (cell number changes) ([1]; retinoblastoma) | DNA condensation and separation (DAPI staining) [2] | mitosis (DAPI staining) [2] |
| --- | --- | --- | --- | --- |
| C=C(c1ccc(C(=O)O)cc1)c1cc2c(cc1C)C(C)(C)CCC2(C)C [Bexarotene] | suppressed | Growth suppression |  |  |
| CN1c2ccc([N+](=O)[O-])cc2N=C(c2ccc(C(=O)O)cc2)c2cc3c(cc21)C(C)(C)CCC3(C)C [HX531] |  |  | DNA condensation and separation defects | significantly suppressed mitosis; also recorded: significantly reduced mitosis |
